Results published in US20250255771A1, “OPHTHALMIC DEVICES FOR MANAGEMENT OF WATER VAPOR TRANSMISSIBILITY, DELIVERY OF PHARMACEUTICAL AGENTS, AND NON-SURGICAL CORNEAL RESHAPING” (OCULAR SURFACE INNOVATIONS INC., priority 2024, published 2025).

What was measured:
[1] = Selective transfer of molecules through ultrahigh Dk lens material; assay type: physicochemical; settings: ultrahigh Dk lens material selective to molecules by size
Excerpt: The inventors discovered an ultrahigh Dk lens material that is selective to the transfer of molecules based on their size. […] The material has value in reverse osmosis systems because of its selective permeability. Its transmissibility may be regulated by the thickness profile of the ophthalmic device or may be further regulated by the addition of surface modification or fillers within the substrate of the material that produce selective permeability related to polar surface area or the molecular weight of a permeant.

[2] = same polydimethylsiloxane devices; stated as known; cited from earlier work
[3] = Retention of permeants under polydimethylsiloxane devices during wearing; settings: devices 14.3 mm overall diameter, thickness greater than 0.400 mm; not found in device substrate after removal or in pre device tear film during wearing

SMILES	transfer through the material [1]	transmissibility through the devices [2]	retention of permeant behind the device (permeation through device) [3]
O=O [oxygen]	will transfer	high transmissibility	
O=C([O-])c1ccccc1-c1c2ccc(=O)cc-2oc2cc([O-])ccc12.[Na+].[Na+] [sodium fluorescein]			retained in the post lens tear space
O [water vapor]	will transfer	high transmissibility	
CCO [ethanol]		high transmissibility	
[Cl-].[Na+] [sodium chloride]	will not transfer		
